From patent publication US4510158A, “2-Phenylindole derivatives, their use as complement inhibitors” (Sterling Drug Inc., priority 1984, dated 1985)

How the values were obtained:
[1] = test system: human complement (C1-C9), classical complement pathway; assay: Hemolytic molecular titrations of classical complement activity (lysis of sensitized sheep erythrocytes by normal human serum); format: biochemical; conditions: concentration effecting 50% suppression of lysis (Z/Zo=0.5), 37° C., 60 min, read-out: Classical Complement Pathway Inhibition IC50
Protocol: (§1) The compounds were evaluated in vitro for their inhibition of human complement (C1-C9) using hemolytic molecular titrations, and the reverse passive Arthus reaction (RPAR) in guinea pigs was chosen as a complement mediated model of acute inflammation to be used to identify compounds with in vivo complement inhibitory activity.
Hemolytic molecular titrations of classical complement activity were performed according to Rapp and Borsos [Molecular Basis of Complement Action, Appleton-Century-Crofts, New York, NY, 1970] and complement inhibition assessed according to Hong et al. (J. Immunol. 1979, Vol. 122, 2418). Operationally, the test compound was maintained in the presence of complement during the lytic reaction of sensitized erythrocytes. Equal volumes (0.2 ml) of normal human serum (NHS), diluted in GVB^++ [Mayer, M. M. in Kabat and Mayer's Experimental Immunochemistry, 2nd Ed.; Charles C. Thomas, Springfield, Ill., 1961, p. 133] to effect lysis of Z=1, and test compound at various concentrations were mixed at 0° C. […] EA (0.2 ml of 1.5×10^8 cells/ml) and 1.8 ml of GVB^++ were added to the reaction mixture followed by incubating at 37° C. for 60 min. The extent of lysis was determined spectrophotometrically at 412 nm. The ratio of treated to untreated (Z/Zo) reaction mixtures was determined as a function of test compound concentration.

[2] = test system: reverse passive Arthus reaction (RPAR); assay: Reverse Passive Arthus Reaction (RPAR) in guinea pigs, complement mediated model of acute inflammation; format: in vivo, guinea pig; conditions: 80 mg/kg iv, 20 min before elicitation; p = 0.001
Protocol: as §1

| Molecule | IC50 [1] | RPAR % Inhib. [2] |
| --- | --- | --- |
| O=C(O)c1ccc(-c2c(-c3ccccc3)[nH]c3ccccc23)cc1 [Example 15, 4-(2-Phenyl-1H-indol-3-yl)benzoic acid] | 105 ± 4 µM |  |
| O=C(O)C1CC=C(c2c(-c3ccccc3)[nH]c3ccccc23)CC1 (stereo not shown) [Example 1, 4-(2-Phenyl-1H-indol-3-yl)-3-cyclohexene-1-carboxylic acid] | 135 ± 2 µM | 64 ± 7% |
| Gold sodium thiomalate [reference compound] | 1070 ± 90 µM |  |
